The target in the test is T1, ABL1 Y253F (Homo sapiens, UniProt P00519, Y253F).
T1 construct: purchased Thermo Fisher Scientific (Life Technologies) SelectScreen
In words: SelectScreen Z'LYTE. The test is classed as biochemical. An outline of the steps:
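NU5455 was profiled across the SelectScreen Broad panel of kinase activity and binding assays. Z'LYTE reactions such as CSF1R ran at apparent Km ATP, while the Adapta CAMK1 assay used ATP listed as 10. Values are given as percent.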

The compound `CN(C(=O)CN1CCOCC1)c1ccc2sc3c(-c4cccc5c(=O)cc(N6CC7CCC(C6)O7)oc45)cccc3c2c1` [NU5455] displayed an inhibition at 1 µM of 5.9%.

Broadly, the inhibition is the change of the read-out against control, counted positive when it falls. A high value points to strong suppression.

Source of the values: article PMC6934184, “Selective DNA-PKcs inhibition extends the therapeutic index of localized radiotherapy and chemotherapy” (The Journal of Clinical Investigation, 2019).
